Data as given in US7714034B2, “Photopolymerizable dental materials with bisacylphosphine oxides as initiators” (Ivoclar Vivadent AG, priority 2006, dated 2010).

Experiment: solubility of the photoinitiator
Assay type: physicochemical
Source text: The bisacylphosphine oxides of the formula (I) absorb in the UV region and also show an absorption greater than 400 nm, so that their photolysis and radical formation can be induced by irradiation with halogen lamps customary in the dental field or also with LED lamps. The bisacylphosphine oxides of the formula (I) contain polymerizable groups and can be incorporated into polymers e.g. by copolymerization. Moreover, the bisacylphosphine oxides according to the invention are very well soluble in polar organic solvents such as acetone, ethanol, acetonitrile or tetrahydrofuran (THF) or their mixtures with water, i.e. the solubility is at least 0.01 mmol/g. It is particularly advantageous that the bisacylphosphine oxides according to the invention show a better storage stability compared with known bisacrylphosphine oxides. The compounds are characterized by a high hydrolysis stability, i.e. they are not more than 15% hydrolyzed in a mixture of […]:H2O (60:40) at 42° C. in 60 days.
To prepare the model formulation, 0.022 mmol of the photoinitiator described in Example 1 were weighed into an analysis tube and made up to 1.00 g with the above composition and dissolved accompanied by slight heating. […]

Row | solubility compared with Irgacure 819 | Compound | maximum solubility (in the primer composition (DEBAMP/DHPAE/water))
1 | better solubility | C=CCOCCOCc1c(C)cc(C)c(C(=O)P(=O)(C(=O)c2c(C)cc(C)c(COCCOCC=C)c2C)c2ccccc2)c1C [BAPOmAOEM] | 
2 |  | Cc1cc(C)c(C(=O)P(=O)(C(=O)c2c(C)cc(C)cc2C)c2ccccc2)c(C)c1 [Irgacure819, bis-(2,4,6-trimethylbenzoyl)-phenylphosphine oxide] | ^5Irgacure 819 was used due to its low solubility in a concentration of 0.005 mmol/g (= maximum solubility)
